Reference: publication PMC9182130 (Molecules, 2022)

How the values were obtained:
[1] = human, in vivo
[2] = 4 °C
[3] = human
[4] = human; remark: listed apart in the source

SMILES	half-life compared with ST-246 [1]	maximum concentration in plasma compared with ST-246 [1]	dose of ST-246 equivalent to 600 mg of NIOCH-14 according to the area under the curve ([1]; po) [mg]	AUCo-inf ([1]; po, 600 mg)	Cl/F ([1]; po, 600 mg) [L/h]	maximal ST-246 concentration in real-world plasma samples ([1]; po) [ng/mL]	time of stability in autosampler [2] [h]	time of stability at −20 °C [3] [days]	time without degradation at −20 °C [3]	% of nominal concentrations after three consecutive freeze-thaw cycles [4]
O=C(NNC(=O)C1C2C=CC(C3CC23)C1C(=O)O)c1ccc(C(F)(F)F)cc1 (stereo not shown) [NIOCH-14]	longer	lower	~250	8864 ± 4117	80 ± 37					
O=C(NN1C(=O)[C@@H]2[C@@H]3C=C[C@@H]([C@H]4C[C@@H]34)[C@@H]2C1=O)c1ccc(C(F)(F)F)cc1 [ST-246, tecovirimat]						≤ 1000	48	≥ 90	at least 3 months	96–115%
